From patent US12411143B2, “CD146 and uses thereof as a biomarker and as a therapeutic target in the diagnosis and treatment of fibrosis” (ASSISTANCE PUBLIQUE HÔPITAUX DE MARSEILLE, priority 2018, dated 2025)

Assays:
ECFC [1] = experiment: Permeability of ECFC monolayer to dextran-FITC; assay type: cell-based, human; conditions: siRNA or plasmid transfection
Experimental: D: ECFC were transfected with siRNA targeting ADAM10 or Tace and with a control siRNA (C). The permeability of the ECFC monolayer grown on semi-permeable filters was determined using dextran-FITC. Results are the mean values+/−SEM of 3 experiments.
E: ECFC were transfected with plasmid vectors encoding ADAM10 (p-ADAM10) or Tace (p-Tace) and with a control plasmid vector (C). The permeability of the ECFC monolayer grown on semi-permeable filters was determined using dextran-FITC. Results are the mean values+/−SEM of 3 experiments. *: P<0.05, **: P<0.01, ***: P<0.001, experimental vs Control.
ECFC were seeded at 60,000 cells per well on membrane inserts (porosity 1 μm) of a 24-multiwell double chamber system (Multiwell Insert System, BD Biosciences, Le Pont de Claix, France) after siRNA transfection or not. Confluent endothelial monolayers were then incubated for 24 h in EGM-2 medium in the presence or absence of the different forms of sCD146. The FITC-dextran (sigma) was added at the apical surface of the cells and was allowed to migrate for 1.5 h at 37° C. Basolateral FITC-dextran was then measured using a Cytofluor Series 4000 Fluorescence (PerSeptiveBiosystems, Framingham, MA).

ECFC [2] = experiment: Soluble CD146 secretion in ECFC (ELISA); assay type: cell-based, human
Experimental: A: Secretion of soluble CD146 (CD146s) was determined in ECFC in response to 24 h of treatment with 20 ng/ml TNF, 20 ng/ml VEGF, 5 ng/ml TGFb, 50 ng/ml netrin, 50 ng/ml Wnt5a and 50 ng/ml Wnt3a.
B: The effect of the pan-inhibitor GM6001 was tested on CD146s secretion in ECFC cells by ELISA. Experiments were performed in control conditions and after treatment with 20 ng/ml TNF for 24 h. […] A dose-dependence of GM6001 effect was performed between 1 and 50 μM. Results are the mean values+/−SEM of 5 experiments.
C: The effect of furin convertase inhibitor (IF) was tested at 50 μMon CD146s secretion in control condition and after treatment with TNF 20 ng/ml for 24 h. Results are the mean values+/−SEM of 3 experiments.
D: Effect of TIMP-1, -2 and -3 (1 μg/ml) was tested on CD146s secretion in control condition and after treatment with 20 ng/ml TNF. Results are the mean values+/−SEM of 3 experiments. *: P<0.05, **: P<0.01, ***: P<0.001, experimental vs Control
A: ECFC were transfected with siRNA targeting the short (shCD146) or the long (IgCD146) isoforms of CD146 and with a control siRNA (C). Soluble CD146 (sCD146) secretion was determined. Results are the mean values+/−SEM of 4 different experiments.
B: ECFC were transfected with siRNA targeting MT1-MMP, MMP2, ADAM10 or Tace and with a control siRNA (C). Soluble CD146 (sCD146) secretion was determined. In one condition, cells were treated with GM6001 10 μM. Results are the mean values+/−SEM of 5 different experiments.
A: ECFC were transfected with siRNA targeting the short (shCD146) or the long (IgCD146) isoforms of CD146 and with a control siRNA (C) and soluble CD146 (sCD146) secretion was determined in basal condition and in cells treated for 24 h with TNF 20 ng/ml. Results are the mean values +/−SEM of 5 different experiments.
B: ECFC treated for 24 h with 20 ng/ml TNF were transfected with siRNA targeting Tace, ADAM10, MT1-MMP and with a control siRNA (C) and soluble CD146 (sCD146) secretion was determined. Results are the mean values +/−SEM of 3 different experiments.
Endothelial Colony Forming Cells (ECFC) were cultured in endothelial EGM-2 MV medium as previously described (Delorme B et al., 2005).
SiRNA designed to silence the different isoforms of sCD146 were generated. A control siRNA was also used in each experiment. siRNAs were introduced in endothelial cells using the Silence magmagnetofection kit as described by the manufacturer (OZ Biosciences).
Shed sCD146 was assayed using the commercial ELISA assay (CY-QUANT sCD146, Biocytex, Marseille). Plates were coated with specific mouse monoclonal anti-human CD146 F(ab′)2 fragments. 10 μL of sera was added to each well and incubated for 30 minutes at room temperature. After incubation, the plates were washed five times, followed by incubation with a specific HRP-coupled monoclonal antibody (7A4-HRP, 1 mg/ml, Biocytex, Marseille, France) at a 1:1 000 dilution in a specific diluent for 30 minutes at room temperature and then washed five times. 200 μL of tetramethylbenzidine (TMB) substrate was incubated for approximately 20 minutes at room temperature. The colorimetric reaction was then stopped by the addition of 100 μL of an acid solution. The intensity of the signal was directly related to the concentration of sCD146 initially contained in the sample. For detecting the two spliced isoforms of sCD146 (I5-13-sCD146 and I10-sCD146), the same immunoassay was used (Biocytex). The protocol was modified only for the second antibody (detection antibody) that was replaced by the anti-I5-13-sCD146 or anti-I10-sCD146 antibodies coupled to HRP.

ECFC [3] = experiment: ECFC proliferation assay; assay type: cell-based, human; conditions: siRNA or plasmid transfection, in the presence of GM6001 10 μM
Experimental: A: Effect of siRNA targeting I10-sCD146 and I5-13-sCD146 on proliferation of ECFC. Experiments were performed in the presence of GM6001 10 μM. Results are mean values of 4 different experiments and representative pictures of the cells in one experiment are given.
B: Effect of over-expression of I10-sCD146 (p-I10-sCD146), I5-13-sCD146 (p-I5-13-sCD146) and shed sCD146 (p-shed sCD146) realized by plasmid transfection on proliferation of ECFC. Experiments were performed in the presence of GM6001 10 μM.
C: Effect of recombinant proteins I10-sCD146, I5-13-sCD146 and shed sCD146 50 ng/ml on the proliferation of ECFC. Experiments were performed in the presence of GM6001 10 μM. Results are mean values of 4 different experiments.
Experiments were performed as previously described (Stalin et al., 2013).

ECFC [4] = experiment: mRNA expression of sCD146 isoforms in ECFC (qPCR); assay type: cell-based, human; conditions: ECFC; 24 h treatment (WNT5a 15 min, WNT3a 1 h)
Experimental: C: The mRNA expression of I10-sCD146 and I5-13-sCD146 isoforms was analyzed by qPCR in ECFC after treatment of the cells for 24 h with the recombinant shed soluble CD146 50 ng/ml, VEGF 20 ng/ml, TNF 20 ng/ml, TGF beta 5 ng/ml, and netrin 50 ng/ml. Cells were also treated for 15 min with WNT5a 200 ng/ml and 1 h with WNT3a 50 ng/ml. Results are the mean values +/−SEM of 3 experiments. *: P<0.05, experimental vs Control.
Total cellular RNA was isolated from cells, reverse transcribed into cDNA and the resulting cDNA was subjected to qPCR.

[5] = tested on: mouse ischemic hind limb model; experiment: Mouse hind limb ischemia model; assay type: in vivo
Experimental: A: Ischemic mice were treated with PBS or 2 μg of rh-sCD146/rh-I10-sCD146/rh-I5-13-sCD146 or VEGF. Blood perfusion rate was monitored by laser-Doppler. Results are mean values of 6 different animals in each group and expressed as % of the control leg. *, **, ***: P<0.05, P<0.01, P<0.001, I10-sCD146 vs. PBS; $$, $$$: P<0.01, P<0.001, I5-13-sCD146 vs. PBS; ##, ###: P<0.01, P<0.001, shed sCD146 vs. PBS; £: P<0.05, VEGF vs. PBS.
B: Blood vessels examination in hind limb muscle sections from control (PBS) and shed rh-sCD146/rh-I10-sCD146/rh-I5-13-sCD146 treated animals 28 days after surgery. Vessels are labelled with isolectin B4.**, ***: P<0.01, P<0.001, experimental vs control. $: P<0.05, I10-sCD146 vs I5-13-sCD146.
C: Angiographic pictures of control (PBS) and shed sCD146/I10-sCD146/I5-13-sCD146 treated animals at D28. Pictures are representative of the 6 animals in each group. Average of the density of the vessels was expressed as right versus left leg in the different parts of the legs (calf, thigh) and in the whole leg. *, **: P<0.01, P<0.001 experimental vs PBS in calf; $: P<0.05, experimental vs PBS in thigh; #, ##: P<0.05, P<0.01, experimental vs PBS in whole leg.
In sections of muscles from ischemic mice, vascularisation was visualized with isolectin B4 (Lifetechnologies) ( 1/100). Tissue sections were examined by fluorescence microscopy (Leica sp5, Leica, Nanterre, France).
Female mice were subjected to unilateral hind limb ischemia by complete resection of the entire left femoral artery. After surgery, animals were split in four treatment groups: one control group injected in ischemic adductor muscles twice a week with PBS for 28 days; three experimental groups treated as the control groups with the three different recombinant human soluble CD146 (rh-sCD146, rh-I5-13-sCD146, rh-I10-sCD146) 2 μg.
The ratio of the ischemic versus normal hind limb blood flow was measured using a laser doppler blood flow analyzer. At different time points post-surgery (days 1, 3, 7, 14, 21 and 28), animals were subjected to 3 consecutive laser scannings over the regions of interest (leg and feet). Blood flow was expressed as the ischemic versus normal hind limb ratio.
The animals were deeply anesthetised with mix of Ketamine Xylasine (100 mg/kg and 10 mg/kg respectively) and perfused intracardially with 2 ml of lipiodole. CT 3D images were obtained with a microPET/microCT rodent model scanner (nanoPET/CTO, Mediso) with features below: 70 kVp energy, exposure time of 300 ms and 720 projections and were quantified.

| Substance | permeability of ECFC monolayer to dextran (ECFC [1]) | reduction of sCD146 secretion by siRNA (ECFC [2]; 24 h TNF 20 ng/ml) | effect of siRNA on sCD146 secretion (ECFC [2]; control condition) | proliferation of ECFC (ECFC [3]) | also measured |
| --- | --- | --- | --- | --- | --- |
| IgCD146 siRNA: siRNA targeting the long isoform of CD146; sens 5′CCCGUCUCGUAAGACCGAACUUGUA (antisense UACAAGUUCGGUCUUACGAGACGGG; chemistry not given here) | significantly increased endothelial permeability | about 60% | reduced sCD146 secretion | – | reduction of sCD146 secretion by siRNA (ECFC [2]; control condition): around 75% |
| Tace siRNA: siRNA targeting Tace; sens 5′CAGGAUUUAAAGGUUAUGGAA (antisense UUCCAUAAACCUUUAAAUCCUG; listed as RNA, chemistry not given here) | did not modify it | 25% | – | – | – |
| siRNA targeting I5-13-sCD146: siRNA targeting I5-13-sCD146; sens UGGACAUCUAGACGGCUGCUCGUUU (antisense AAACGAGCAGCCGUCUAGAUGUCCA; chemistry not given here) | – | – | – | inhibited the proliferation of ECFC | – |
| VEGF [reference compound] | – | – | – | – | I5-13-sCD146 mRNA level (ECFC [4]): not modified; I10-sCD146 mRNA level (ECFC [4]): down-regulated; vascularisation of muscle (isolectin B4 labelling) ([5]; 28 days after surgery, compared to PBS): vascularisation was increased; vessel density in calf, thigh and whole leg (angiography quantification) ([5]; D28, compared to PBS): significantly increased; secretion of soluble CD146 in response to stimuli (ECFC [2]; 24 h, 20 ng/ml TNF, 20 ng/ml VEGF, 5 ng/ml TGFb, 50 ng/ml netrin, 50 ng/ml Wnt5a): increased |
| ADAM10 siRNA: siRNA targeting ADAM10; sens 5′GAAUGGUAGAACAAGGUGAtt (sense GAAUGGUAGAACAAGGUGATT; antisense UCACCUUGUUCUACCAUUCCA; chemistry not given here) | decreased | 60% | able to inhibit sCD146 secretion | – | – |
| siRNA targeting I10-sCD146: siRNA targeting I10-sCD146; sens CCCUCCCUCUGGGUAGAGACCAGGU (antisense ACCUGGUCUCUACCCAGAGGGAGGG; chemistry not given here) | – | – | – | inhibited the proliferation of ECFC | – |
